The target of data set [1] is T1, ATP-dependent translocase ABCB1 (Homo sapiens, UniProt P08183). Kind of data set: TP_TRANSPORTER: inhibition of Daunorubicin efflux (Daunorubicin: 5 uM, Tween 80: 0.01 %(v/v)) in EHR2/DNR+ cells. The data set is classed as functional, cell-based. The conditions noted are these: mouse.
In data set [2] the target is T1, ATP-dependent translocase ABCB1. In words: TP_TRANSPORTER: inhibition of Daunorubicin efflux (Daunorubicin: 5 uM, Cremophor EL: 0.01 %(v/v)) in EHR2/DNR+ cells. The conditions noted are these: mouse. The data set is classed as functional, cell-based.

T1 sequence (P08183 whole entry): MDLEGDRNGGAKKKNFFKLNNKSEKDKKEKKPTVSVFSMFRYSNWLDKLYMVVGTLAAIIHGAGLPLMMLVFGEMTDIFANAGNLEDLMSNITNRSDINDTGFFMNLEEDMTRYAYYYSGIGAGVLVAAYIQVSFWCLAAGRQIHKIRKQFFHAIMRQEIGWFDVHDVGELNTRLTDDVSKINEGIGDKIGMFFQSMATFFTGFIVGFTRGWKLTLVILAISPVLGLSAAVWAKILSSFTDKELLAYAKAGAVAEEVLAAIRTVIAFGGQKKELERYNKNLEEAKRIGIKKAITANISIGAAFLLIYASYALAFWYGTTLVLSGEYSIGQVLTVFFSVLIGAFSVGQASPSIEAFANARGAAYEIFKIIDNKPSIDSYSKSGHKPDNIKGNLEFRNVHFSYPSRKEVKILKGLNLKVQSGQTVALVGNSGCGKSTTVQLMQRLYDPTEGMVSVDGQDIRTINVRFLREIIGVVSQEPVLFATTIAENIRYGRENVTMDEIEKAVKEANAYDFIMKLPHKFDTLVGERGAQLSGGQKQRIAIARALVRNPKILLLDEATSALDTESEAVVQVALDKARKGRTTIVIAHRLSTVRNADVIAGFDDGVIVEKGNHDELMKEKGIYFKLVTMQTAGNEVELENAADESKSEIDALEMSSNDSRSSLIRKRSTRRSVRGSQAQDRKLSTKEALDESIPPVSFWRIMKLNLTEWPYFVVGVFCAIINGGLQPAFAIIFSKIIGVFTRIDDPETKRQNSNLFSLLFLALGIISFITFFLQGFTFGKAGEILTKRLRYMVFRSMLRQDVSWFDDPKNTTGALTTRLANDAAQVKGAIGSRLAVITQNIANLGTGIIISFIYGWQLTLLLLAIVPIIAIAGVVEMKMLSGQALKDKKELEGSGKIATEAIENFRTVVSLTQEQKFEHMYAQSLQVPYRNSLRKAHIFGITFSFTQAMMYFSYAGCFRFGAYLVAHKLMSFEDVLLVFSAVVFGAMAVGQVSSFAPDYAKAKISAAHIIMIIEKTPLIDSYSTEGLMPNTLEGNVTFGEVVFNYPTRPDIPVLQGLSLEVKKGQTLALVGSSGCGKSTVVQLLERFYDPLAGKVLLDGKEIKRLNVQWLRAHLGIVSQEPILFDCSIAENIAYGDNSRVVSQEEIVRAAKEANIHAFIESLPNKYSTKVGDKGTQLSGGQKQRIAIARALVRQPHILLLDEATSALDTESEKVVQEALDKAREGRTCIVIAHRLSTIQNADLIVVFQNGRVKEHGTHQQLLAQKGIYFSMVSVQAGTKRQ

With `CCCCCCCC/C=C\CCCCCCCC(=O)OCCOCC(OCCO)C1OCC(OCCO)C1OCCO` (configuration not stated) [TWEEN 80], the Activity entry in data set [1] was “inhibitor [+]”.
Take CREMOPHOR EL: the Activity result in data set [2] was “inhibitor [+]”.

The values above are taken from ChEMBL document CHEMBL2074403, “The solvents cremophor EL and Tween 80 modulate daunorubicin resistance in the multidrug resistant Ehrlich ascites tumor” (Cancer Commun, 1990).
